Assays:
[1] = system: CoV-2 ORF3a-mediated activation of caspase 1; assay type: cell-based, human
SARS-CoV = details: Lu W et al. Proc Natl Acad Sci USA 103, 12540-12545 (2006); cited from earlier work

[Ba+2] [barium]
CoV-2 ORF3a-mediated activation of caspase 1 [1]: able to curb CoV-2 ORF3a-mediated activation of caspase 1 | release of SARS-CoV virions (SARS-CoV): block the release of SARS-CoV virions
